Nine compounds from ChEMBL document CHEMBL5331081, “Discovery of cysteine-targeting covalent histone methyltransferase inhibitors” (Eur J Med Chem, 2023) can be followed below.

Series [1] has as its system A549. Kind of series: Anticancer activity against human A549 cells assessed as cell growth inhibition measured after 48 hrs by CCK-8 assay. The series is classed as functional. In general terms: Formazan colour is commonly taken as a measure of viable cells.
In series [2] the test system is NCI-H1299. Kind of series: Anticancer activity against human NCI-H1299 cells assessed as cell growth inhibition measured after 48 hrs by CCK-8 assay. The format is functional.
The subject of series [3] is MDA-MB-231. In words: Anticancer activity against human MDA-MB-231 cells assessed as cell growth inhibition measured after 48 hrs by CCK-8 assay. The format is functional.
The test system of series [4] is MCF7. In words: Anticancer activity against human MCF7 cells assessed as cell growth inhibition measured after 48 hrs by CCK-8 assay. The format is functional.
In series [5] the test system is PBMC. In words: Anticancer activity against mouse PBMC cells harboring NUP98-NSD1 fusion protein assessed as cell growth inhibition measured after 3 days by MTT assay. The format is functional. The conditions noted are these: 72 h, time 3 day.
Series [6] deals with PBMC. In words: Anticancer activity against mouse PBMC cells harboring NUP98-NSD1 fusion protein assessed as cell growth inhibition measured after 7 days by MTT assay. The conditions noted are these: 168 h, time 7 day. The format is functional.
The target in series [7] is Histone-lysine N-methyltransferase EZH2 (Homo sapiens, UniProt Q15910). Kind of series: Inhibition of EZH2 (unknown origin).
Series [8] can be described thus: Anticancer activity against human MOLM16 cells assessed as cell growth inhibition measured after 7 days by WST-8 assay. The conditions noted are these: MOLM16, 168 h, time 7 day. The series is classed as functional, MOLM-16.
For series [9], the system named is MV4-11. Kind of series: Anticancer activity against human MV4-11 cells harboring MLL-AF4 fusion protein assessed as cell growth inhibition measured after 7 days by WST-8 assay. The format is functional. The conditions noted are these: MV4-11, 168 h, pooled result: one value given for 6 cell lines, strains, targets or settings, time 7 day.
Series [10] deals with SKM-1. Kind of series: Anticancer activity against human SKM-1 cells assessed as cell growth inhibition measured after 7 days by WST-8 assay. The format is functional. The conditions noted are these: SKM-1, 168 h, time 7 day.
The test system of series [11] is HL-60. In words: Anticancer activity against human HL-60 cells assessed as cell growth inhibition measured after 7 days by WST-8 assay. The series is classed as functional. The conditions noted are these: HL-60, 168 h, time 7 day.
Series [12] has as its target Menin/Histone-lysine N-methyltransferase MLL (Homo sapiens, UniProt O00255+Q03164). Kind of series: Inhibition of menin (unknown origin)/MLL (unknown origin) protein-protein interaction by fluorescence polarization assay.
The subject of series [13] is K562. In words: Anticancer activity against human K562 cells assessed as cell growth inhibition measured after 7 days by WST-8 assay. The series is classed as functional. The conditions noted are these: K562, 168 h, time 7 day.
Series [14] in a line: Reduction in H3K9me2 level in human MDA-MB-231 cells incubated for 48 hrs by ChIP assay. The format is functional, cell-based. The conditions noted are these: MDA-MB-231, 48 h.
Series [15] in a line: in vivo. The conditions noted are these: CD-1, mouse, po, 100 mg/kg.
Series [16] has as its system MV4-11. In words: Anticancer activity against human MV4-11 cells assessed as cell growth inhibition. The format is functional.
Series [17] in a line: Selectivity index, ratio of GI50 for human MV4-11 cells harboring MLL-AF4 fusion protein to ratio of GI50 for human HL-60 cells. The series is classed as functional.
The test system of series [18] is HL-60. In words: Anticancer activity against human HL-60 cells assessed as cell growth inhibition. The format is functional.

Chain of Menin/Histone-lysine N-methyltransferase MLL (O00255 whole entry): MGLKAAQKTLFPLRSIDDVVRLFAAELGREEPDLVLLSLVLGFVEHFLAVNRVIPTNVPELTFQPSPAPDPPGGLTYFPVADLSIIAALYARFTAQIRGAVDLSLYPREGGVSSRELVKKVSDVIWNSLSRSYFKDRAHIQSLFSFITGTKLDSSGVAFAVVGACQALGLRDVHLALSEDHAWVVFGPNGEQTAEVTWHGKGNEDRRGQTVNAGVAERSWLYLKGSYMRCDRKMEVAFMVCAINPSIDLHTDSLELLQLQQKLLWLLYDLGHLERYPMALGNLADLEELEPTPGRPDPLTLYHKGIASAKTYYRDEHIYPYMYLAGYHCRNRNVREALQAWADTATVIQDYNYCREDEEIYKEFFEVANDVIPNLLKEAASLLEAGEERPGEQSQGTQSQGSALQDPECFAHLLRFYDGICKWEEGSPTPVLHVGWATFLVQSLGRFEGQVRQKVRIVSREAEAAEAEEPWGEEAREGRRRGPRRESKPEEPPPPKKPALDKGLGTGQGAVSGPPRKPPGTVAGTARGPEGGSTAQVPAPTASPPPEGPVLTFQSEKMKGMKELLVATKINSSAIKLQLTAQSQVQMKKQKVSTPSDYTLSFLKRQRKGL
Chain of Menin/Histone-lysine N-methyltransferase MLL (Q03164 1-2718 limits assumed): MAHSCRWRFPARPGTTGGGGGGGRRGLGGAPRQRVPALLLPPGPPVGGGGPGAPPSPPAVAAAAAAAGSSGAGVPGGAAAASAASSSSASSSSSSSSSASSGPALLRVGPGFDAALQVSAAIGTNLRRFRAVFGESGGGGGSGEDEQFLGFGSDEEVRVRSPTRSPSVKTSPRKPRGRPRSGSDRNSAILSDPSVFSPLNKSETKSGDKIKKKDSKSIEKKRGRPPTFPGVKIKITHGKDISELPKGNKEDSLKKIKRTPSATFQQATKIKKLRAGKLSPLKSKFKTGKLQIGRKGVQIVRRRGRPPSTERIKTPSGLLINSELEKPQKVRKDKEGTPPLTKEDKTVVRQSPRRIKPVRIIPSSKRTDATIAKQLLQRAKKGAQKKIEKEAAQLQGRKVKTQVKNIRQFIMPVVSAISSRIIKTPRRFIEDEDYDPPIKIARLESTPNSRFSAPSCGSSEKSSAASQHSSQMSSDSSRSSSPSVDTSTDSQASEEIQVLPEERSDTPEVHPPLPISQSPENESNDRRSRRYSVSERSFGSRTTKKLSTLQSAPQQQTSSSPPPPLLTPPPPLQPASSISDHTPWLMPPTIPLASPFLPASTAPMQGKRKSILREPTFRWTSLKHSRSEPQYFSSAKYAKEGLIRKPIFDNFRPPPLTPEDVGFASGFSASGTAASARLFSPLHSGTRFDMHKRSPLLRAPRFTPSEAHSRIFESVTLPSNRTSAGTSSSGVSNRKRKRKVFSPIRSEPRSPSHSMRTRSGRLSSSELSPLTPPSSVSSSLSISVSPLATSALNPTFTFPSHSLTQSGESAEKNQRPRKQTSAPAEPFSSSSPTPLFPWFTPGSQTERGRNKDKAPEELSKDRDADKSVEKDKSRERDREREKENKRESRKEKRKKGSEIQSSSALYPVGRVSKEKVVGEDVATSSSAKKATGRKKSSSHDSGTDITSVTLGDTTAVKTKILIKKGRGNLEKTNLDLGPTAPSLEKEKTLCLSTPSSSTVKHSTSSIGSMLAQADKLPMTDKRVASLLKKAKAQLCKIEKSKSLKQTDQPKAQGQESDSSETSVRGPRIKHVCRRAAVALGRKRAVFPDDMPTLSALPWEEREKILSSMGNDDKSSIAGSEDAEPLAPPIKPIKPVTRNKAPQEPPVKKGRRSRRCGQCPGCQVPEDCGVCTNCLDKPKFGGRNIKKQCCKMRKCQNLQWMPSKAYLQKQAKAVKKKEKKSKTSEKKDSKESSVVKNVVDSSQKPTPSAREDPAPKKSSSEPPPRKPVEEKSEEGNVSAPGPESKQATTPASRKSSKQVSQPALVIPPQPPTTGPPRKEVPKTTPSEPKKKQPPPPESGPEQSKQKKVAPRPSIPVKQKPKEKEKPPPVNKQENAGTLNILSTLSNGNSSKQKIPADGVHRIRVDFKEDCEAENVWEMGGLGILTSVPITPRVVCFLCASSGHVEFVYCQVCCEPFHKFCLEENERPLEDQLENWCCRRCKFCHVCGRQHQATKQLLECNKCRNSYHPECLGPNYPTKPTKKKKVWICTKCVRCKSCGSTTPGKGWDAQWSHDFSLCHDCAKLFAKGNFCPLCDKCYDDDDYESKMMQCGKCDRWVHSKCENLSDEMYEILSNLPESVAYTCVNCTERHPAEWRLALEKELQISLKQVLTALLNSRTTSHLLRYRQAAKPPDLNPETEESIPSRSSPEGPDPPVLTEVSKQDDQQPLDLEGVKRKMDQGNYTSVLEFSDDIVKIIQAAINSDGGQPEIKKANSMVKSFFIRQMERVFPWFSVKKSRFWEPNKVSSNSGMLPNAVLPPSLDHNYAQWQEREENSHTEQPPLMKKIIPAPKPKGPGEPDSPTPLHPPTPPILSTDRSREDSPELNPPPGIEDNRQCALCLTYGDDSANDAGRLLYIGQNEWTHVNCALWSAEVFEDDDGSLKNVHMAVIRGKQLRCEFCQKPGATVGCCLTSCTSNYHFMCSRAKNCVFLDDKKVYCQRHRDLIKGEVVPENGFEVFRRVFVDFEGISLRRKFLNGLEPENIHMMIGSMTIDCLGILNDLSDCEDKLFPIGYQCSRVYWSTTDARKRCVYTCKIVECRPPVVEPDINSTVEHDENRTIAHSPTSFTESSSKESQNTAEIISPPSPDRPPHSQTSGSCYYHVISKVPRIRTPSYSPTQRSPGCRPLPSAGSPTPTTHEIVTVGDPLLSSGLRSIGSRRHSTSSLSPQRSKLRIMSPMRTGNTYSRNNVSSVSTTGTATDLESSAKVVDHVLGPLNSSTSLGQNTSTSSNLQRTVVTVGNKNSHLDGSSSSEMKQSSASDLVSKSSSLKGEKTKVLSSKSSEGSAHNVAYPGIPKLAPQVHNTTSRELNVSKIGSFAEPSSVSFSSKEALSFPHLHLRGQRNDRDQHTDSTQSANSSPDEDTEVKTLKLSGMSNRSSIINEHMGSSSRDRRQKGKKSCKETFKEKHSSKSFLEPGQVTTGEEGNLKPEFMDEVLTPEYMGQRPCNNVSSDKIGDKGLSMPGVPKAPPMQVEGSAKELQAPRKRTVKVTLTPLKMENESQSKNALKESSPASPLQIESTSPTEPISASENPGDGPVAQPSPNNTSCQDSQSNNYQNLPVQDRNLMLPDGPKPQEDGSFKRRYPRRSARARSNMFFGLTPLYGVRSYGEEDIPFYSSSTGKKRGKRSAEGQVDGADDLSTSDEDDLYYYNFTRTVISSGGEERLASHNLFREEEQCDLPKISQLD
Chain of Menin/Histone-lysine N-methyltransferase MLL (Q03164 2719-3969 limits assumed): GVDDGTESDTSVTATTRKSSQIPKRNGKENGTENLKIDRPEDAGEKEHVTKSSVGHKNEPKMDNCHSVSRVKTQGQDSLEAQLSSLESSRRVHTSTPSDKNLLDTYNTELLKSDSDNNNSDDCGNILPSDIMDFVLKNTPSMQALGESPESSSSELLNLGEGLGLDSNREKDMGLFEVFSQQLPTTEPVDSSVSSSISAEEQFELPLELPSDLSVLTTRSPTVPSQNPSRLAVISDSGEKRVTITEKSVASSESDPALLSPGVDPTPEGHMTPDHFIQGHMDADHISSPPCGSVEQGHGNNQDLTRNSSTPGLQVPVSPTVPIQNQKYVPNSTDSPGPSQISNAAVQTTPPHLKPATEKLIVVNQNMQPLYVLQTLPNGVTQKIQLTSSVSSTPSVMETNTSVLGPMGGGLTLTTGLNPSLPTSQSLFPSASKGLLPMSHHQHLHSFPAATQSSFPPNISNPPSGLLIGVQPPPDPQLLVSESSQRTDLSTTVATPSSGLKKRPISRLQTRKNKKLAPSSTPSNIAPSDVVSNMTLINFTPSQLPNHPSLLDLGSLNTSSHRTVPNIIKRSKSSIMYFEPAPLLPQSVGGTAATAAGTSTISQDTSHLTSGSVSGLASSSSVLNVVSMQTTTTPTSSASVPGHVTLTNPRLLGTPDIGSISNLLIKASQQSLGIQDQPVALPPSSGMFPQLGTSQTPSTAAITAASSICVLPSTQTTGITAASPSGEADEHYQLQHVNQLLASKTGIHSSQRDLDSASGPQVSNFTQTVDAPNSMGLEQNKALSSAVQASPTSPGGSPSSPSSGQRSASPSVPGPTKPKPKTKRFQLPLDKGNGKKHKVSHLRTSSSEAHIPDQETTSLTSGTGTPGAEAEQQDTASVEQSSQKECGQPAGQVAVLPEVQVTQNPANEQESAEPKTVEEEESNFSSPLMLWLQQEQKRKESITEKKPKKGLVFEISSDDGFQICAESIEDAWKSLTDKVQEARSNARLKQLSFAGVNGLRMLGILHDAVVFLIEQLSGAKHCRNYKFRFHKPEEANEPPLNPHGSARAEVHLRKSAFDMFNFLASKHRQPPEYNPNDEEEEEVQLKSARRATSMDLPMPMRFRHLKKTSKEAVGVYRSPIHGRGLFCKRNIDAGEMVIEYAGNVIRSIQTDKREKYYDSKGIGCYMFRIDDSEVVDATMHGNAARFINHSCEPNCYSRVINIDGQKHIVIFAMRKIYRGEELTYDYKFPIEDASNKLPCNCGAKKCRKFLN

The GI50 is the concentration giving 50% growth inhibition. On to `O=C(CCl)Nc1ccc(S(=O)(=O)c2ccc(NC(=O)CCl)cc2)cc1`, for which the 50% growth inhibitory concentration (GI50) in series [1] came to 702 nM; in [2], 684 nM; in series [3], 597 nM; in series [4], 413 nM.

As for `CC1CN1c1cc(O)c2nc(N)sc2c1` (stereo unspecified), the 50% growth inhibitory concentration (GI50) in [5] is 1300 nM; in series [6], 870 nM.

For orientation: IC50 means the concentration that inhibits the measured activity by half. A high value points to lower potency. Consider `C=CC(=O)Nc1cc(-c2ccc(N3CCNCC3)cc2)cc(C(=O)NCc2c(CC)cc(C)[nH]c2=O)c1C`, for which the IC50 in series [7] is 47 nM.

For `COC(=O)N[C@H]1CCC[C@@H]1[C@](C#N)(c1cccc(F)c1)C1CCN(CC2CN(c3ccc(S(=O)(=O)C4CN(C(=O)/C=C/CN(C)C)C4)cc3)C2)CC1`, the GI50 in series [8] amounted to 900 nM; in [9], 2.3 nM; in series [10] it was 900 nM; in [11], 900 nM; in series [13] it was 900 nM. In [12], this compound gave a 50% inhibitory concentration (IC50) of 3 nM.

In the case of `COc1cc2nc(N3CCCN(C)CC3)nc(NC3CCN(Cc4ccccc4)CC3)c2cc1OC`, in [14], the concentration for half-maximal inhibition (IC50) turned out to be 500 nM.

As usually defined, the bioavailability is dose-corrected exposure relative to a reference, in per cent. Low readings indicate poor availability, high ones good availability. `CC1(C)CN=C(N2CCN(c3ncnc4sc5c(c34)CCCC5)CC2)S1` came in with a bioavailability in series [15] of 77%.

In turn, `COc1cc2c(NC3CCN(C(C)C)CC3)nc(C3CCCCC3)nc2cc1OCCCN1CCCC1` came in with a half-inhibitory concentration (IC50) in series [14] of 81 nM.

On to `COC(=O)N[C@H]1CCC[C@@H]1[C@](C#N)(c1cccc(F)c1)C1CCN(CC2CN(c3ccc(S(=O)(=O)C4CCC4)cc3)C2)CC1`, for which 7 nM corresponded to half-maximal inhibition in [12] (IC50). The GI50 in [16] was 210 nM.

`C=CC(=O)N1CC(S(=O)(=O)c2ccc(N3CC(CN4CCC([C@@](C#N)(c5cccc(F)c5)[C@H]5CCC[C@@H]5NC(=O)OC)CC4)C3)cc2)C1`: the RatioGI50 in [17] is greater than 500. Moreover, the GI50 in [18] was found to be 3200 nM; in series [16] it was 6 nM.
